Assay results as given in ChEMBL document CHEMBL2202990, “(R)- and (S)-4-Amino-3-(trimethylsilyl)methylbutanoic acids ameliorate neuropathic pain without central nervous system-related side effects” (Bioorg Med Chem Lett, 2012).
Activity calls are given as the source filed them.

Key:
Rattus norvegicus [1] = experiment: Antiallodynic activity in CD rat SNL pain model assessed as increase in paw withdrawal threshold at 60 mg/kg, po measured up to 180 mins; assay type: functional, organism-based; design: dose 60 mg/kg
Mus musculus [2] = experiment: Toxicity against mouse assessed as protection against pentetrazole-induced death at 15 mg/kg; assay type: organism-based; design: dose 15 mg/kg; conditions: in vivo
Rattus norvegicus [3] = experiment: Toxicity against CD rat SNL pain model assessed as hypalgesic activity on the contralateral side of paw at 40 mg/kg, po at 90 mins relative to control; assay type: organism-based; design: dose 40 mg/kg, route oral; conditions: in vivo, 1.5 h
Mus musculus [4] = experiment: Toxicity against mouse assessed as protection against pentetrazole-induced death at 5 mg/kg; assay type: organism-based; design: dose 5 mg/kg; conditions: in vivo
Mus musculus [5] = experiment: Toxicity against mouse assessed as protection against maximal-electroshock-induced tonic seizure at 5 mg/kg; assay type: organism-based; design: dose 5 mg/kg; conditions: in vivo
Rattus norvegicus [6] = experiment: Antiallodynic activity in CD rat SNL pain model assessed as increase in paw withdrawal threshold at 20 mg/kg, po measured after 90 mins; assay type: functional, organism-based; design: dose 20 mg/kg
Rattus norvegicus [7] = experiment: Antiallodynic activity in CD rat SNL pain model assessed as increase in paw withdrawal threshold at 20 mg/kg, po measured from 30 to 60 mins; assay type: functional, organism-based; design: dose 20 mg/kg
Mus musculus [8] = experiment: Toxicity against mouse assessed as protection against pentetrazole-induced death at 45 mg/kg; assay type: organism-based; design: dose 45 mg/kg; conditions: in vivo
Mus musculus [9] = experiment: Toxicity against mouse assessed as protection against maximal-electroshock-induced tonic seizure at 45 mg/kg; assay type: organism-based; design: dose 45 mg/kg; conditions: in vivo
Mus musculus [10] = experiment: Toxicity against mouse assessed as protection against maximal-electroshock-induced tonic seizure at 15 mg/kg; assay type: organism-based; design: dose 15 mg/kg; conditions: in vivo
Rattus norvegicus [11] = experiment: Toxicity against CD rat SNL pain model assessed as hypalgesic activity on the contralateral side of paw at 20 mg/kg, po at 90 mins relative to control; assay type: organism-based; design: dose 20 mg/kg, route oral; conditions: in vivo, 1.5 h
Rattus norvegicus [12] = experiment: Toxicity against rat assessed as somnolence at 30 mg/kg; assay type: organism-based; design: dose 30 mg/kg; conditions: in vivo
Rattus norvegicus [13] = experiment: Antiallodynic activity in CD rat SNL pain model assessed as increase in paw withdrawal threshold at 20 mg/kg, po measured from 30 to 180 mins; assay type: functional, organism-based; design: dose 20 mg/kg
Rattus norvegicus [14] = experiment: Antiallodynic activity in CD rat SNL pain model assessed as increase in paw withdrawal threshold at 20 mg/kg, po measured at 90 mins; assay type: functional, organism-based; design: dose 20 mg/kg
Rattus norvegicus [15] = experiment: Antiallodynic activity in CD rat SNL pain model assessed as increase in paw withdrawal threshold at 40 mg/kg, po measured from 30 to 180 mins; assay type: functional, organism-based; design: dose 40 mg/kg

Row | Structure (SMILES) | Activity (Rattus norvegicus [1]) | Activity (Mus musculus [2]) | Activity (Rattus norvegicus [3]) | Activity (Mus musculus [4]) | Activity (Mus musculus [5]) | Activity (Rattus norvegicus [6]) | Activity (Rattus norvegicus [7]) | Activity (Mus musculus [8]) | Activity (Mus musculus [9]) | Activity (Mus musculus [10]) | Activity (Rattus norvegicus [11]) | Activity (Rattus norvegicus [12]) | Activity (Rattus norvegicus [13]) | Activity (Rattus norvegicus [14]) | Activity (Rattus norvegicus [15])
1 | C[Si](C)(C)CC(CN)CC(=O)O (racemic) | Active | – | – | – | – | – | – | – | – | – | – | – | – | – | –
2 | C[Si](C)(C)C[C@@H](CN)CC(=O)O | – | Non-toxic | Non-toxic | Non-toxic | Non-toxic | inactive | Active | Non-toxic | Non-toxic | Non-toxic | Non-toxic | – | – | – | –
3 | CC(C)C[C@H](CN)CC(=O)O [PREGABALIN] | – | – | – | – | – | – | – | Toxic | Toxic | Toxic | Toxic | Toxic | Active | Active | –
4 | C[Si](C)(C)C[C@H](CN)CC(=O)O | – | Non-toxic | Non-toxic | Non-toxic | Non-toxic | – | – | Non-toxic | Non-toxic | Non-toxic | Non-toxic | – | inactive | – | Active
